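Cultured in 96-well plates, cells were exposed to test compound for 48 hours across five concentrations. Abbreviation: GI50, concentration required for 50% inhibition of growth.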 Calls of active or inactive are those of the source. Cut-off read from the data, not from the text of the source: active = GI50 up to about 1.1 µM and inactive = higher.
Legend:
Test in all cases: DTP human tumour cell line panel, 48 h
HT-29 = tested on: HT-29
SNB-19 = tested on: SNB-19
NCI-H23 = tested on: NCI-H23
UACC-62 = tested on: UACC-62
SK-OV-3 = tested on: SK-OV-3
CCRF-CEM = tested on: CCRF-CEM
SNB-75 = tested on: SNB-75
SN12C = tested on: SN12C
A549 = tested on: A549
OVCAR-3 = tested on: OVCAR-3
IGROV-1 = tested on: IGROV-1
SW-620 = tested on: SW-620
A498 = tested on: A498
HCC 2998 = tested on: HCC 2998
OVCAR-8 = tested on: OVCAR-8
SK-MEL-28 = tested on: SK-MEL-28
Hs-578T = tested on: Hs-578T
NCI-H226 = tested on: NCI-H226
UACC-257 = tested on: UACC-257
HOP-92 = tested on: HOP-92

| Structure (SMILES) | GI50 (HT-29) | GI50 (SNB-19) | GI50 (NCI-H23) | GI50 (UACC-62) | GI50 (SK-OV-3) | GI50 (CCRF-CEM) | GI50 (SNB-75) | GI50 (SN12C) | GI50 (A549) | GI50 (OVCAR-3) | GI50 (IGROV-1) | GI50 (SW-620) | GI50 (A498) | GI50 (HCC 2998) | GI50 (OVCAR-8) | GI50 (SK-MEL-28) | GI50 (Hs-578T) | GI50 (NCI-H226) | GI50 (UACC-257) | GI50 (HOP-92) |
| --- | --- | --- | --- | --- | --- | --- | --- | --- | --- | --- | --- | --- | --- | --- | --- | --- | --- | --- | --- | --- |
| CCN(CC)CCN1C(=O)C(=O)N(c2cccc3ccccc23)C1=O | > 10 µM (inactive) | > 10 µM (inactive) | > 10 µM (inactive) | > 10 µM (inactive) | > 10 µM (inactive) | > 10 µM (inactive) | > 10 µM (inactive) | > 10 µM (inactive) | > 10 µM (inactive) | > 10 µM (inactive) | > 10 µM (inactive) | > 10 µM (inactive) | > 10 µM (inactive) | > 10 µM (inactive) | > 10 µM (inactive) | > 10 µM (inactive) | 8.65 µM (inactive) | > 10 µM (inactive) |  |  |
| Clc1ccc(NCc2nnc(CCCCCCCCc3nnc(CNc4ccc(Cl)cc4)o3)o2)cc1 | > 100 µM (inactive) | > 100 µM (inactive) | > 100 µM (inactive) | > 100 µM (inactive) | > 100 µM (inactive) | > 100 µM (inactive) | > 100 µM (inactive) | > 100 µM (inactive) | > 100 µM (inactive) | > 100 µM (inactive) |  |  | > 100 µM (inactive) | > 100 µM (inactive) | > 100 µM (inactive) |  | > 100 µM (inactive) |  | > 100 µM (inactive) | > 100 µM (inactive) |
| O=C1/C(=C/c2ccco2)N=C(c2ccccc2)N1c1cc2cc(Sc3ccccc3)ccc2[nH]1 | 20 µM (inactive) | > 25 µM (inactive) | > 25 µM (inactive) | 21.8 µM (inactive) |  | 2.72 µM (inactive) | > 25 µM (inactive) | 17.4 µM (inactive) | > 25 µM (inactive) |  | > 25 µM (inactive) | 13.1 µM (inactive) | 17 µM (inactive) |  | 22.8 µM (inactive) | > 25 µM (inactive) | 15.3 µM (inactive) |  |  | 8.24 µM (inactive) |
| COc1c2c(c3c(c1CCC(=O)O)OC(C)(C)C=C3)OC(C)(C)C=C2 | > 100 µM (inactive) | > 100 µM (inactive) | > 100 µM (inactive) | > 100 µM (inactive) | > 100 µM (inactive) |  | > 100 µM (inactive) | > 100 µM (inactive) | 54.5 µM (inactive) | 58.7 µM (inactive) | > 100 µM (inactive) | > 100 µM (inactive) | > 100 µM (inactive) | > 100 µM (inactive) | > 100 µM (inactive) | > 100 µM (inactive) | 83.8 µM (inactive) | 83.4 µM (inactive) | > 100 µM (inactive) |  |
| Nc1ccccc1CCN1CCN(CCCc2ccccc2)CC1 | 21.4 µM (inactive) | > 100 µM (inactive) | > 100 µM (inactive) | 84.3 µM (inactive) | > 100 µM (inactive) | 46.1 µM (inactive) |  | 87.7 µM (inactive) | 70.8 µM (inactive) | > 100 µM (inactive) | 50.6 µM (inactive) | 95.3 µM (inactive) | 74.5 µM (inactive) | 19.4 µM (inactive) | 49.5 µM (inactive) | 97.7 µM (inactive) | > 100 µM (inactive) | 44.5 µM (inactive) | 32.5 µM (inactive) |  |
| C=C[C@H]1CN2CCc3c([nH]c4c([C@H]5CCCN5C)c(O)ccc34)[C@@H]2C[C@@H]1C[C@H]1c2[nH]c3ccccc3c2CCN1C [STRYCHNOPENTAMINE] | 1.3 µM (inactive) | 1.95 µM (inactive) | 1.85 µM (inactive) | 1.77 µM (inactive) | 1.77 µM (inactive) | 0.719 µM (active) | 1.14 µM (inactive) | 1.65 µM (inactive) | 1.55 µM (inactive) | 1.58 µM (inactive) | 1.59 µM (inactive) | 1.24 µM (inactive) | 1.63 µM (inactive) | 0.388 µM (active) | 1.23 µM (inactive) | 1.76 µM (inactive) | 1.78 µM (inactive) |  | 1.83 µM (inactive) | 1.58 µM (inactive) |
